# Publication PMC5114424, “The Role of Folate Transport in Antifolate Drug Action in Trypanosoma brucei” (The Journal of Biological Chemistry, 2016)
# Columns and labels:
# Assay type in all cases: cell-based, Trypanosoma brucei brucei
# FT1–3 (TbFT1–3) [1] = tested on: T1, FT1–3 (TbFT1–3); assay: inhibition of [3H]folate uptake, whole cells; conditions: 2.0 μM folate ([S] ≅ Km); pH 7.3; read-out: IC50 against folate
# T1 construct: native transporters in intact bloodstream-form trypanosomes; 12 predicted transmembrane helices; uptake assigned by RNAi knockdown of all three
# Text: inhibition of [3H]folate uptake, whole cells on FT1–3 (TbFT1–3)
# FT1–3 (TbFT1–3) [2] = tested on: T1, FT1–3 (TbFT1–3); assay: [3H]folic acid uptake, whole cells; conditions: transport, 23 °C, pH 7.3; labelled compound
# Text: [3H]folic acid uptake, whole cells on FT1–3 (TbFT1–3) | Uptake rates for folate obeyed simple Michaelis-Menten kinetics (Fig. 2D) yielding a Km of […]
# FT1–3 (TbFT1–3) [3] = tested on: T1, FT1–3 (TbFT1–3); assay: inhibition of [3H]MTX uptake, whole cells, Lineweaver-Burk / global fit; conditions: competitive with MTX; folate 0, 0.5, 1 μM; pH 7.3
# FT1–3 (TbFT1–3) [4] = tested on: T1, FT1–3 (TbFT1–3); assay: inhibition of [3H]MTX uptake, whole cells; conditions: 13 μM MTX ([S] ≅ Km); pH 7.3; read-out: IC50 against MTX
# Text: inhibition of [3H]MTX uptake, whole cells on FT1–3 (TbFT1–3)
# FT1–3 (TbFT1–3) [5] = tested on: T1, FT1–3 (TbFT1–3); assay: inhibition of [3H]folate uptake, whole cells, Lineweaver-Burk / global fit; conditions: competitive with folate; MTX 0, 0.5, 1 μM; pH 7.3
# FT1–3 (TbFT1–3) [6] = tested on: T1, FT1–3 (TbFT1–3); assay: [3H]MTX uptake, whole cells; conditions: transport, 23 °C, pH 7.3; labelled compound
SMILES,IC50 (FT1–3 (TbFT1–3) [1]) [µM],other results
CN1c2c(nc(N)[nH]c2=O)NC[C@@H]1CNc1ccc(C(=O)N[C@@H](CCC(=O)O)C(=O)O)cc1 [5-methyl-THF],6.3 ± 1,
Nc1nc2ncc(CNc3ccc(C(=O)N[C@@H](CCC(=O)O)C(=O)O)cc3)nc2c(=O)[nH]1 [folate],,Km (FT1–3 (TbFT1–3) [2]): 2.04 ± 0.53 µM; Ki (FT1–3 (TbFT1–3) [3]): 0.94 ± 0.21 µM; IC50 (FT1–3 (TbFT1–3) [4]): 1.9 ± 0.4 µM
CN(Cc1cnc2nc(N)nc(N)c2n1)c1ccc(C(=O)N[C@@H](CCC(=O)O)C(=O)O)cc1 [methotrexate],3.4 ± 0.4,Ki (FT1–3 (TbFT1–3) [5]): 0.48 ± 0.07 µM; Km (FT1–3 (TbFT1–3) [6]): 18.4 ± 2.2 µM
Nc1ccc(C(=O)N[C@@H](CCC(=O)O)C(=O)O)cc1 [pABA-Glu],30.8 ± 3.7,
Nc1nc(=O)c2c(CCc3ccc(C(=O)N[C@@H](CCC(=O)O)C(=O)O)cc3)c[nH]c2[nH]1 [pemetrexed],3.2 ± 0.3,
Cc1nc2ccc(CN(C)c3ccc(C(=O)N[C@@H](CCC(=O)O)C(=O)O)s3)cc2c(=O)[nH]1 [raltitrexed],1.8 ± 0.4,
